The results in this text go back to patent US20240208992A1, “MACROCYCLES AS CFTR MODULATORS” (Idorsia Pharmaceuticals Ltd, priority 2021, published 2024).

This assay addresses human F508del-CFTR (Homo sapiens, UniProt P13569, DEL508-508). Nature of the assay: F508del-CFTR cell surface expression (corrector activity), DiscoveRx ß-galactosidase complementation chemiluminescence assay in recombinant U2OS cell line.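 On all read-outs here: U2OS cells co-expressing ProLink-tagged F508del-CFTR and a membrane-anchored enzyme acceptor, where more surface CFTR restores β-galactosidase activity measured by chemiluminescence.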 The conditions noted are these: U2OS cells, 16h compound incubation; for EC50: EC50, F508del-CFTR cell surface expression, geomean of several measurements; for Emax: U2OS, in relation to the Emax of the corrector lumacaftor (=100%), arithmetic mean.

human F508del-CFTR, sequence (P13569 with tags, fused parts or gaps DEL508-508): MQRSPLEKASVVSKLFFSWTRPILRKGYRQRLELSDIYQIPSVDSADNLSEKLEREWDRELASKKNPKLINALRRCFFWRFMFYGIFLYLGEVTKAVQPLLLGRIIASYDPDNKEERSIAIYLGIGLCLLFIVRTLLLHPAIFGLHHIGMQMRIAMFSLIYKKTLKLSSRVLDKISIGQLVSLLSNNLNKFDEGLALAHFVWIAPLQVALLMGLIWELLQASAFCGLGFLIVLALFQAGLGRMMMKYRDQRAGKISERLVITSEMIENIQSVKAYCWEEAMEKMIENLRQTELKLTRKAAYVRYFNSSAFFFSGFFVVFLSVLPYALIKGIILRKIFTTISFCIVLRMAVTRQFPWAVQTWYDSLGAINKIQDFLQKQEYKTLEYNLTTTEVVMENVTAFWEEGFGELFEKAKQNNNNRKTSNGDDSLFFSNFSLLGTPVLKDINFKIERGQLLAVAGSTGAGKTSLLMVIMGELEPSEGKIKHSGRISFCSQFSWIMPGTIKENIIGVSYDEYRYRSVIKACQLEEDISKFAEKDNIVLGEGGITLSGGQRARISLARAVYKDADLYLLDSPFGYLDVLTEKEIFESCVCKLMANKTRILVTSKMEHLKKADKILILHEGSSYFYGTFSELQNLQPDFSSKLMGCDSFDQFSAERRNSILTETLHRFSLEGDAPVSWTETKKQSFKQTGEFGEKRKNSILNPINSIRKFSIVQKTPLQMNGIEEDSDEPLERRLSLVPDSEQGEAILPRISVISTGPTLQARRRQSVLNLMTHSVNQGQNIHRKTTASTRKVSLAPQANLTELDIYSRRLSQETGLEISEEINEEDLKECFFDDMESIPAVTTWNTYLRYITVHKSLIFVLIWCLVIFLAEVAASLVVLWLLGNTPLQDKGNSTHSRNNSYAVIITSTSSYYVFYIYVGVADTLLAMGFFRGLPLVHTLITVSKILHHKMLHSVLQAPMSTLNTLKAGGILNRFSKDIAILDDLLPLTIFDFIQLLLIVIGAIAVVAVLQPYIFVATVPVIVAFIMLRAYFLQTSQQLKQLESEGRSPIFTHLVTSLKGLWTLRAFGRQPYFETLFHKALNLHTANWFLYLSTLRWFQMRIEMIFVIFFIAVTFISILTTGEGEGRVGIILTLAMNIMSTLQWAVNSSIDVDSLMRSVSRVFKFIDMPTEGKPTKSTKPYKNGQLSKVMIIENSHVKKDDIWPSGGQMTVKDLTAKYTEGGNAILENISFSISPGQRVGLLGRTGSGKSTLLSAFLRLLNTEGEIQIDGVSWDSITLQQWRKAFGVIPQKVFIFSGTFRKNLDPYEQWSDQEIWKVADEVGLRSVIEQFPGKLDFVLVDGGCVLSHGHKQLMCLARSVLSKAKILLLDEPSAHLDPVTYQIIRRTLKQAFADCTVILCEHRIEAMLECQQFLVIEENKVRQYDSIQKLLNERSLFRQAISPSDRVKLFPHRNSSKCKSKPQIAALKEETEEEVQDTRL

One may read the EC50 as the concentration at which the effect is half-maximal. By Emax is commonly meant the greatest response seen or fitted, relative to the assay's reference. For the compound `COc1noc(CCNC(=O)[C@@H]2CC(=O)N(C)[C@@H](CC(C)C)C(=O)N(C)C3(CC3)C(=O)N[C@H](Cc3ccccc3)COc3ccc4ncc(F)cc4c3C(=O)N2)n1` [Example 911, (3′S,7′S,13′R)-13′-benzyl-20′-fluoro-7′-isobutyl-N-(2-(3-methoxy-1,2,4-oxadiazol-5-yl)ethyl)-6′,9′-dimethyl-1′,5′,8′,11′-tetraoxo-2′,3′,4′,5′,6′,7′,8′,9′,11′,12′,13′,14′-dodecahydro-1′H-spiro[cyclopropane-1,10′-[1]oxa[4,7,10,14]tetraazacycloheptadecino[16,17-f]quinoline]-3′-carboxamide], the EC50 was 531 nM and the Emax is 341%.
For `COc1cc(CCNC(=O)[C@@H]2CC(=O)N(C)[C@@H](CC(C)C)C(=O)N3CCCC[C@@H]3C(=O)N[C@H](Cc3ccccc3)COc3ccc4ncccc4c3C(=O)N2)on1` [Example 912, (9S,13S,19aR,22R)-22-benzyl-13-isobutyl-N-(2-(3-methoxyisoxazol-5-yl)ethyl)-12-methyl-7,11,14,20-tetraoxo-7,8,9,10,11,12,13,14,17,18,19,19a,20,21,22,23-hexadecahydro-16H-pyrido[2′,1′:6,7][1]oxa[4,7,10,14]tetraazacycloheptadecino[16,17-f]quinoline-9-carboxamide], in that order: 272 nM and 332%.
On to `CCOCC[C@@H]1C(=O)N[C@H](Cc2ccccc2)COc2ccc3cnc(C)cc3c2C(=O)N[C@H](C(=O)NCCc2cc(OC)no2)CC(=O)N(C)[C@@H](CC(C)C)C(=O)N1C` [Example 913, (3S,7S,10R,13R)-13-benzyl-10-(2-ethoxyethyl)-7-isobutyl-N-(2-(3-methoxyisoxazol-5-yl)ethyl)-6,9,20-trimethyl-1,5,8,11-tetraoxo-1,2,3,4,5,6,7,8,9,10,11,12,13,14-tetradecahydro-[1]oxa[4,7,10,14]tetraazacycloheptadecino[16,17-f]isoquinoline-3-carboxamide], for which the EC50 amounted to 294 nM and the Emax came to 390%.
For `CCOCC[C@@H]1C(=O)N[C@H](Cc2ccccc2)COc2ccc3cnc(C)cc3c2C(=O)N[C@H](C(=O)NCCc2nc(OC)no2)CC(=O)N(C)[C@@H](CC(C)C)C(=O)N1C` [Example 914, (3S,7S,10R,13R)-13-benzyl-10-(2-ethoxyethyl)-7-isobutyl-N-(2-(3-methoxy-1,2,4-oxadiazol-5-yl)ethyl)-6,9,20-trimethyl-1,5,8,11-tetraoxo-1,2,3,4,5,6,7,8,9,10,11,12,13,14-tetradecahydro-[1]oxa[4,7,10,14]tetraazacycloheptadecino[16,17-f]isoquinoline-3-carboxamide] the same measures were 368 nM and 358%.
For `CCOCC[C@@H]1C(=O)N[C@H](Cc2ccccc2)COc2ccc3cnc(C)cc3c2C(=O)N[C@H](C(=O)NCCn2nnc(C3CC3)n2)CC(=O)N(C)[C@@H](CC(C)C)C(=O)N1C` [Example 915, (3S,7S,10R,13R)-13-benzyl-N-(2-(5-cyclopropyl-2H-tetrazol-2-yl)ethyl)-10-(2-ethoxyethyl)-7-isobutyl-6,9,20-trimethyl-1,5,8,11-tetraoxo-1,2,3,4,5,6,7,8,9,10,11,12,13,14-tetradecahydro-[1]oxa[4,7,10,14]tetraazacycloheptadecino[16,17-f]isoquinoline-3-carboxamide], in that order: 334 nM and 361%.
On to `COc1noc(CCNC(=O)[C@@H]2CC(=O)N(C)[C@@H](CC(C)C)C(=O)N(C)[C@H](Cc3nc(-c4ccc(F)cn4)no3)C(=O)N[C@H](Cc3ccccc3)COc3ccc4ncc(F)cc4c3C(=O)N2)n1` [Example 916, (3S,7S,10R,13R)-13-benzyl-20-fluoro-10-((3-(5-fluoropyridin-2-yl)-1,2,4-oxadiazol-5-yl)methyl)-7-isobutyl-N-(2-(3-methoxy-1,2,4-oxadiazol-5-yl)ethyl)-6,9-dimethyl-1,5,8,11-tetraoxo-1,2,3,4,5,6,7,8,9,10,11,12,13,14-tetradecahydro-[1]oxa[4,7,10,14]tetraazacycloheptadecino[16,17-f]quinoline-3-carboxamide], for which the EC50 came out at 196 nM and the maximal effect (Emax) was 470%.
Turning to `COc1noc(CCNC(=O)[C@@H]2CC(=O)N(C)[C@@H](CC(C)C)C(=O)N(C)[C@H](Cc3nc(-c4ccc(F)cn4)no3)C(=O)N[C@H](Cc3ccccc3)COc3ccc4cnc(C)cc4c3C(=O)N2)n1` [Example 917, (3S,7S,10R,13R)-13-benzyl-10-((3-(5-fluoropyridin-2-yl)-1,2,4-oxadiazol-5-yl)methyl)-7-isobutyl-N-(2-(3-methoxy-1,2,4-oxadiazol-5-yl)ethyl)-6,9,20-trimethyl-1,5,8,11-tetraoxo-1,2,3,4,5,6,7,8,9,10,11,12,13,14-tetradecahydro-[1]oxa[4,7,10,14]tetraazacycloheptadecino[16,17-f]isoquinoline-3-carboxamide], the EC50 was 487 nM and the Emax is 398%.
`COc1noc(CCNC(=O)[C@@H]2CC(=O)N(C)[C@@H](CC(C)C)C(=O)N(C)[C@H](Cc3nc(C(F)(F)F)no3)C(=O)N[C@H](Cc3ccccc3)COc3ccc4cnc(C)cc4c3C(=O)N2)n1` [Example 918, (3S,7S,10R,13R)-13-benzyl-7-isobutyl-N-(2-(3-methoxy-1,2,4-oxadiazol-5-yl)ethyl)-6,9,20-trimethyl-1,5,8,11-tetraoxo-10-((3-(trifluoromethyl)-1,2,4-oxadiazol-5-yl)methyl)-1,2,3,4,5,6,7,8,9,10,11,12,13,14-tetradecahydro-[1]oxa[4,7,10,14]tetraazacycloheptadecino[16,17-f]isoquinoline-3-carboxamide]: the EC50 worked out at 42 nM and the Emax was determined as 462%.
For `COc1noc(CCNC(=O)[C@@H]2CC(=O)N(C)[C@@H](CC(C)C)C(=O)N(C)[C@H](Cc3nc(C(F)(F)F)no3)C(=O)N[C@H](Cc3ccccc3)COc3cc(C)nc(OC)c3C(=O)N2)n1` [Example 919, (3R,6R,9S,13S)-3-benzyl-9-isobutyl-16-methoxy-N-(2-(3-methoxy-1,2,4-oxadiazol-5-yl)ethyl)-7,10,18-trimethyl-5,8,11,15-tetraoxo-6-((3-(trifluoromethyl)-1,2,4-oxadiazol-5-yl)methyl)-2,3,4,5,6,7,8,9,10,11,12,13,14,15-tetradecahydropyrido[3,4-p][1]oxa[4,7,10,14]tetraazacycloheptadecine-13-carboxamide], in that order: 104 nM and 443%.
As to `COc1noc(CCNC(=O)[C@@H]2CC(=O)N(C)[C@@H](CC(C)C)C(=O)N3CCCC[C@@H]3C(=O)N[C@H](Cc3ccccc3)COc3cc(C)c4ncccc4c3C(=O)N2)n1` [Example 920, (9S,13S,19aR,22R)-22-benzyl-13-isobutyl-N-(2-(3-methoxy-1,2,4-oxadiazol-5-yl)ethyl)-2,12-dimethyl-7,11,14,20-tetraoxo-7,8,9,10,11,12,13,14,17,18,19,19a,20,21,22,23-hexadecahydro-16H-pyrido[2′,1′:6,7][1]oxa[4,7,10,14]tetraazacycloheptadecino[16,17-f]quinoline-9-carboxamide], the EC50 turned out to be 175 nM and the Emax was found to be 380%.
With `Cc1cc2c3c(ccc2cn1)OC[C@@H](Cc1ccccc1)NC(=O)[C@@H](Cc1nc(C(F)F)no1)N(C)C(=O)[C@H](CC(C)C)N(C)C(=O)C[C@@H](C(=O)NCCn1nnc(C2CC2)n1)NC3=O` [Example 921, (3S,7S,10R,13R)-13-benzyl-N-(2-(5-cyclopropyl-2H-tetrazol-2-yl)ethyl)-10-((3-(difluoromethyl)-1,2,4-oxadiazol-5-yl)methyl)-7-isobutyl-6,9,20-trimethyl-1,5,8,11-tetraoxo-1,2,3,4,5,6,7,8,9,10,11,12,13,14-tetradecahydro-[1]oxa[4,7,10,14]tetraazacycloheptadecino[16,17-f]isoquinoline-3-carboxamide], the EC50 stood at 231 nM and the Emax is 393%.
`COc1noc(CCNC(=O)[C@@H]2CC(=O)N(C)[C@@H](CC(C)C)C(=O)N(C)C3(CC(F)(F)C3)C(=O)N[C@H](Cc3ccccc3)COc3ccc4ncc(F)cc4c3C(=O)N2)n1` [Example 922, (3′S,7′S,13′R)-13′-benzyl-3,3,20′-trifluoro-7′-isobutyl-N-(2-(3-methoxy-1,2,4-oxadiazol-5-yl)ethyl)-6′,9′-dimethyl-1′,5′,8′,11′-tetraoxo-2′,3′,4′,5′,6′,7′,8′,9′,11′,12′,13′,14′-dodecahydro-1′H-spiro[cyclobutane-1,10′-[1]oxa[4,7,10,14]tetraazacycloheptadecino[16,17-f]quinoline]-3′-carboxamide]: the EC50 worked out at 302 nM and the Emax stood at 396%.
For `Cc1cc2c(c3cccnc13)C(=O)N[C@H](C(=O)NCCn1nnc(C3CC3)n1)CC(=O)N(C)[C@@H](CC(C)C)C(=O)N(C)[C@H](Cc1nc(C(F)(F)F)no1)C(=O)N[C@H](Cc1ccccc1)CO2` [Example 923, (3S,7S,10R,13R)-13-benzyl-N-(2-(5-cyclopropyl-2H-tetrazol-2-yl)ethyl)-7-isobutyl-6,9,17-trimethyl-1,5,8,11-tetraoxo-10-((3-(trifluoromethyl)-1,2,4-oxadiazol-5-yl)methyl)-1,2,3,4,5,6,7,8,9,10,11,12,13,14-tetradecahydro-[1]oxa[4,7,10,14]tetraazacycloheptadecino[16,17-f]quinoline-3-carboxamide] the same measures were 26 nM and 500%.
Consider `CC(C)C[C@H]1C(=O)N(C)[C@H](Cc2nc(C(F)(F)F)no2)C(=O)N[C@H](Cc2ccccc2)COc2ccc3ncc(F)cc3c2C(=O)N[C@H](C(=O)NCCn2nnc(C3CC3)n2)CC(=O)N1C` [Example 924, (3S,7S,10R,13R)-13-benzyl-N-(2-(5-cyclopropyl-2H-tetrazol-2-yl)ethyl)-20-fluoro-7-isobutyl-6,9-dimethyl-1,5,8,11-tetraoxo-10-((3-(trifluoromethyl)-1,2,4-oxadiazol-5-yl)methyl)-1,2,3,4,5,6,7,8,9,10,11,12,13,14-tetradecahydro-[1]oxa[4,7,10,14]tetraazacycloheptadecino[16,17-f]quinoline-3-carboxamide], for which the EC50 came out at 33 nM and the Emax is 409%.
